Data as given in the supplement of paper PMC10307832.

Experiments:
Experiment in all cases: relative viability (nuclei count vs DMSO), 5 days (fraction); higher = more cells survive
NCI-H1993 = system: NCI-H1993
Procedure, shortened: (§1)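 Five library-drug doses in √10 steps were combined with a fixed anchor-drug dose, or a single drug was given alone, by pin tool to lung cancer cell lines in 1536-well plates the day after seeding. Nuclei were stained and counted after 5 days. Relative viability is the nuclei count in treated wells over that in vehicle wells, taken as the median of duplicate plates.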

NCI-H2405 = system: NCI-H2405
Procedure, shortened: as §1

NCI-H2085 = system: NCI-H2085
Procedure, shortened: as §1

SK-MES-1 = system: SK-MES-1
Procedure, shortened: as §1

NCI-H1355 = system: NCI-H1355
Procedure, shortened: as §1

NCI-H1793 = system: NCI-H1793
Procedure, shortened: as §1

UMC-11 = system: UMC-11
Procedure, shortened: as §1

LCLC-103H = system: LCLC-103H
Procedure, shortened: as §1

NCI-H1395 = system: NCI-H1395
Procedure, shortened: as §1

NCI-H23 = system: NCI-H23
Procedure, shortened: as §1

EPLC-272H = system: EPLC-272H
Procedure, shortened: as §1

LCLC-97TM1 = system: LCLC-97TM1
Procedure, shortened: as §1

NCI-H1944 = system: NCI-H1944
Procedure, shortened: as §1

HCC-827 = system: HCC-827
Procedure, shortened: as §1

HCC-44 = system: HCC-44
Procedure, shortened: as §1

EMC-BAC-2 = system: EMC-BAC-2
Procedure, shortened: as §1

H3255 = system: H3255
Procedure, shortened: as §1

NCI-H650 = system: NCI-H650
Procedure, shortened: as §1

NCI-H2087 = system: NCI-H2087
Procedure, shortened: as §1

NCI-H1651 = system: NCI-H1651
Procedure, shortened: as §1

NCI-H520 = system: NCI-H520
Procedure, shortened: as §1

ChaGo-K-1 = system: ChaGo-K-1
Procedure, shortened: as §1

NCI-H322M = system: NCI-H322M
Procedure, shortened: as §1

C[C@@H]1CN(CC(=O)Nc2ccc3c(c2)Cc2cccc(-c4cc(=O)cc(N5CCOCC5)o4)c2S3)C[C@H](C)O1 + Cc1cc(Nc2cc(N3CCN(C)CC3)nc(Sc3ccc(NC(=O)C4CC4)cc3)n2)n[nH]1 [Tozasertib] (partner 0.1 µM)
relative viability (NCI-H1993; first compound 0.04 µM): 0.567
relative viability (NCI-H1993; first compound 0.1265 µM): 0.592
relative viability (NCI-H1993; first compound 0.4 µM): 0.52
relative viability (NCI-H1993; first compound 4 µM): 0.569
relative viability (NCI-H2405; first compound 0.04 µM): 0.676
relative viability (NCI-H2405; first compound 0.1265 µM): 0.766
relative viability (NCI-H2405; first compound 0.4 µM): 0.703
relative viability (NCI-H2405; first compound 4 µM): 0.695
relative viability (NCI-H2085; first compound 0.04 µM): 0.85
relative viability (NCI-H2085; first compound 0.1265 µM): 0.827
relative viability (NCI-H2085; first compound 0.4 µM): 0.739
relative viability (NCI-H2085; first compound 4 µM): 0.551
relative viability (SK-MES-1; first compound 0.04 µM): 1.09
relative viability (SK-MES-1; first compound 0.1265 µM): 0.852
relative viability (SK-MES-1; first compound 0.4 µM): 0.826
relative viability (SK-MES-1; first compound 4 µM): 0.647
relative viability (NCI-H1355; first compound 0.04 µM): 0.361
relative viability (NCI-H1355; first compound 0.1265 µM): 0.514
relative viability (NCI-H1355; first compound 0.4 µM): 0.461
relative viability (NCI-H1355; first compound 4 µM): 0.42
relative viability (NCI-H1793; first compound 0.04 µM): 0.279
relative viability (NCI-H1793; first compound 0.1265 µM): 0.313
relative viability (NCI-H1793; first compound 0.4 µM): 0.306
relative viability (NCI-H1793; first compound 4 µM): 0.17
relative viability (UMC-11; first compound 0.04 µM): 0.208
relative viability (UMC-11; first compound 0.1265 µM): 0.198
relative viability (UMC-11; first compound 0.4 µM): 0.19
relative viability (UMC-11; first compound 4 µM): 0.199
relative viability (LCLC-103H; first compound 0.04 µM): 0.532
relative viability (LCLC-103H; first compound 0.1265 µM): 0.498
relative viability (LCLC-103H; first compound 0.4 µM): 0.544
relative viability (LCLC-103H; first compound 4 µM): 0.417
relative viability (NCI-H1395; first compound 0.04 µM): 0.696
relative viability (NCI-H1395; first compound 0.1265 µM): 0.729
relative viability (NCI-H1395; first compound 0.4 µM): 0.665
relative viability (NCI-H1395; first compound 4 µM): 0.721
relative viability (NCI-H23; first compound 0.04 µM): 0.362
relative viability (NCI-H23; first compound 0.1265 µM): 0.308
relative viability (NCI-H23; first compound 0.4 µM): 0.348
relative viability (NCI-H23; first compound 4 µM): 0.198
relative viability (EPLC-272H; first compound 0.04 µM): 0.189
relative viability (EPLC-272H; first compound 0.1265 µM): 0.237
relative viability (EPLC-272H; first compound 0.4 µM): 0.256
relative viability (EPLC-272H; first compound 4 µM): 0.243
relative viability (LCLC-97TM1; first compound 0.04 µM): 0.27
relative viability (LCLC-97TM1; first compound 0.1265 µM): 0.226
relative viability (LCLC-97TM1; first compound 0.4 µM): 0.214
relative viability (LCLC-97TM1; first compound 4 µM): 0.207
relative viability (NCI-H1944; first compound 0.04 µM): 0.273
relative viability (NCI-H1944; first compound 0.1265 µM): 0.255
relative viability (NCI-H1944; first compound 0.4 µM): 0.263
relative viability (NCI-H1944; first compound 4 µM): 0.23
relative viability (HCC-827; first compound 0.04 µM): 0.451
relative viability (HCC-827; first compound 0.1265 µM): 0.396
relative viability (HCC-827; first compound 0.4 µM): 0.41
relative viability (HCC-827; first compound 4 µM): 0.427
relative viability (HCC-44; first compound 0.04 µM): 0.862
relative viability (HCC-44; first compound 0.1265 µM): 0.933
relative viability (HCC-44; first compound 0.4 µM): 1.05
relative viability (HCC-44; first compound 4 µM): 0.652
relative viability (EMC-BAC-2; first compound 0.04 µM): 0.257
relative viability (EMC-BAC-2; first compound 0.1265 µM): 0.29
relative viability (EMC-BAC-2; first compound 0.4 µM): 0.294
relative viability (EMC-BAC-2; first compound 4 µM): 0.264
relative viability (H3255; first compound 0.04 µM): 0.694
relative viability (H3255; first compound 0.1265 µM): 0.606
relative viability (H3255; first compound 0.4 µM): 0.625
relative viability (H3255; first compound 4 µM): 0.492
relative viability (NCI-H650; first compound 0.04 µM): 0.655
relative viability (NCI-H650; first compound 0.1265 µM): 0.811
relative viability (NCI-H650; first compound 0.4 µM): 0.698
relative viability (NCI-H650; first compound 4 µM): 0.581
relative viability (NCI-H2087; first compound 0.04 µM): 0.309
relative viability (NCI-H2087; first compound 0.1265 µM): 0.249
relative viability (NCI-H2087; first compound 0.4 µM): 0.333
relative viability (NCI-H2087; first compound 4 µM): 0.228
relative viability (NCI-H1651; first compound 0.04 µM): 0.683
relative viability (NCI-H1651; first compound 0.1265 µM): 0.609
relative viability (NCI-H1651; first compound 0.4 µM): 0.602
relative viability (NCI-H1651; first compound 4 µM): 0.535
relative viability (NCI-H520; first compound 0.04 µM): 0.474
relative viability (NCI-H520; first compound 0.1265 µM): 0.454
relative viability (NCI-H520; first compound 0.4 µM): 0.356
relative viability (NCI-H520; first compound 4 µM): 0.448
relative viability (ChaGo-K-1; first compound 0.04 µM): 0.264
relative viability (ChaGo-K-1; first compound 0.1265 µM): 0.209
relative viability (ChaGo-K-1; first compound 0.4 µM): 0.226
relative viability (ChaGo-K-1; first compound 4 µM): 0.173
relative viability (NCI-H322M; first compound 0.04 µM): 0.489
relative viability (NCI-H322M; first compound 0.1265 µM): 0.486
relative viability (NCI-H322M; first compound 0.4 µM): 0.449
relative viability (NCI-H322M; first compound 4 µM): 0.432
